For 19 molecules, IC50 results are on record in patent publication US10669269B2, “Substituted N-(1H-indazol-4-yl)imidazo[1,2-a]pyridine-3-carboxamide compounds as type III receptor tyrosine kinase inhibitors” (ARRAY BIOPHARMA INC., priority 2010, dated 2020).

The target of assay [1] is T1, c-KIT (Homo sapiens, UniProt P10721).
T1 construct: M-07e cells (human acute megakaryoblastic leukemia cell line) were serum-starved for 4 hours; endogenous in cells; host or cells: M-07e cells (human acute megakaryoblastic leukemia cell line)
In words: c-KIT Cell-Based Assay (Example D). The settings on record: averaged IC50; phospho-c-KIT in M-07e cells stimulated with 150 ng/ml recombinant human SCF; read-out: cKIT Cell ELISA IC50. The method in brief: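 M-07e cells serum-starved 4 h, treated 1 h with compound (9-point, 3-fold dilutions, top dose typically 5,000 nM) at 37° C, then stimulated 4 min with 150 ng/ml SCF. Phospho-c-KIT in lysates quantified by ELISA against a standard curve; IC50 from 4-parameter logistic fit as 50% of control.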
(In general: In an ELISA, binding on a coated surface is turned into a signal by an enzyme label.)

Assay [2] deals with T2, PDGFR beta (Homo sapiens, UniProt P09619).
T2 construct: endogenous in cells; host or cells: HS27 human fibroblast cell line
In words: Phospho PDGFR LICOR Cell Assay (Example B). It is filed as cell-based. The settings on record: averaged IC50; PDGFR beta phosphorylation in HS27 human fibroblast cell line, PDGF-BB stimulation 10 minutes, normalized to total ERK. The method in brief:
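HS27 human fibroblasts pretreated 1 h with compound, then stimulated 10 min with PDGF-BB. Fixed, permeabilized cells immunostained for phospho-PDGFRβ and total ERK and read by two-colour infrared fluorescence, with phospho signal normalized to ERK. IC50 = 50% of control from 4-parameter logistic fit.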

Assay [3] deals with T3, cFMS (Homo sapiens, UniProt P07333).
T3 construct: THP-1 cells (human acute monocytic leukemia cell line) were serum-starved for 4 hours; endogenous in cells; host or cells: THP-1 cells (human acute monocytic leukemia cell line)
In words: cFMS Cell-Based Assay (Example C). The settings on record: averaged IC50; phospho-cFMS in THP-1 cells stimulated with 250 ng/mL recombinant human MCSF; read-out: cFMS Cell ELISA IC50. Summed up:
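THP-1 cells serum-starved 4 h, then treated 1 h with compound (9-point, 3-fold series, top dose typically 5,000 nM) at 37 °C, then stimulated 1 min with 250 ng/mL recombinant human MCSF. Phospho-cFMS in lysates quantified by capture ELISA against a purified phospho-protein standard curve. IC50 at 50 percent of control, 4-parameter logistic fit.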

Counter-ions that a name gives are not always drawn.

Broadly, the IC50 is the concentration at which inhibition is half-maximal.

T1 sequence (P10721 26-976): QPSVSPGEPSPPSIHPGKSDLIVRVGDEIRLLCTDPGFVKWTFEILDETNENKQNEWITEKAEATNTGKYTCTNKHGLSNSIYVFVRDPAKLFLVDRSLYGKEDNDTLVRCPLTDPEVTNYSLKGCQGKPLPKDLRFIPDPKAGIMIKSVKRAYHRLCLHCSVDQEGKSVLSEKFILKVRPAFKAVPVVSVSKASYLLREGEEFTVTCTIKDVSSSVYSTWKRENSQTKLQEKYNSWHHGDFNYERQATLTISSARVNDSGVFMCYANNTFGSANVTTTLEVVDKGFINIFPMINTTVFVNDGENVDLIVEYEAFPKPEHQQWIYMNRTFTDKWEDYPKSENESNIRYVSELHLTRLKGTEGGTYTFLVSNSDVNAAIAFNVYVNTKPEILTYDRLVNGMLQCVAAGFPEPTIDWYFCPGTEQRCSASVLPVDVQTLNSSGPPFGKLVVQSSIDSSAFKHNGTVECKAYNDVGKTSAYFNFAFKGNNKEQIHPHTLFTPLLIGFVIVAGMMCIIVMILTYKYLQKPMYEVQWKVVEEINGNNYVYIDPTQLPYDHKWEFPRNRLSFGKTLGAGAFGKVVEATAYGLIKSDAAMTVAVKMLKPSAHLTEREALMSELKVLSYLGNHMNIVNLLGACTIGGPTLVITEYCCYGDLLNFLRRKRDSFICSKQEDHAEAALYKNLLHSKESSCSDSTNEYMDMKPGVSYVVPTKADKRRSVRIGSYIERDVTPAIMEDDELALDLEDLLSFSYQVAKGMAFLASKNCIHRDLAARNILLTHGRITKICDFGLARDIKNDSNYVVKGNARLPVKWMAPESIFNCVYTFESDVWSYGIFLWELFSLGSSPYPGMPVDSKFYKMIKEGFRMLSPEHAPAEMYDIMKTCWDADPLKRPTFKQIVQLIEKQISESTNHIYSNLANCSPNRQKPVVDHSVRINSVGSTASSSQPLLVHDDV
T2 sequence (P09619 33-1106): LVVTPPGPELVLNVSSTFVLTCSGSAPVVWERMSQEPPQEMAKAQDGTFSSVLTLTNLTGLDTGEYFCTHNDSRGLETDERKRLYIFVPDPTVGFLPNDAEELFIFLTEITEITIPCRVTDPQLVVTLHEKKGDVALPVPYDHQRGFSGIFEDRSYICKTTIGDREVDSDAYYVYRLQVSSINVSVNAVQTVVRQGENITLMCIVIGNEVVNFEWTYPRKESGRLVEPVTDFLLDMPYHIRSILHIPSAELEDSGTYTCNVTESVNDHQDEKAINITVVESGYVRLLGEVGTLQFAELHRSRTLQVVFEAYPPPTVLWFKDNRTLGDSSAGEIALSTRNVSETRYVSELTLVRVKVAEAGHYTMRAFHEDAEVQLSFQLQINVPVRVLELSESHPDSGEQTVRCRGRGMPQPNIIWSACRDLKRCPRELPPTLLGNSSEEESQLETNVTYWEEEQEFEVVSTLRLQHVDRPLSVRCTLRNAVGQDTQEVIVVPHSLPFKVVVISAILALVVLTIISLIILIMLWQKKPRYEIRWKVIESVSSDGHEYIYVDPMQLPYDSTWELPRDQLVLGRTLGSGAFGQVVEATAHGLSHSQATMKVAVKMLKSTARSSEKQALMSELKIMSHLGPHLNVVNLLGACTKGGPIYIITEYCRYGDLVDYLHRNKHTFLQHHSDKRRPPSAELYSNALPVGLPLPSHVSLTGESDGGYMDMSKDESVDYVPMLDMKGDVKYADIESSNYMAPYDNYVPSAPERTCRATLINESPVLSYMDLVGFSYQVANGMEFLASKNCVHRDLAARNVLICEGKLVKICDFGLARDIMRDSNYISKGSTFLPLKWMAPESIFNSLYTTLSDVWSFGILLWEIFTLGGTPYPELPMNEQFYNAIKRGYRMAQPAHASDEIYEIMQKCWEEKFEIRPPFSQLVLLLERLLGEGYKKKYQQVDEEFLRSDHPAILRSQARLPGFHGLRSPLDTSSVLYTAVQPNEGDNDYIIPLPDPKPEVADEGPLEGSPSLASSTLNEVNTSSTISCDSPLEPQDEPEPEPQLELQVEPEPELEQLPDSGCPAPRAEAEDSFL
T3 sequence (P07333 20-972): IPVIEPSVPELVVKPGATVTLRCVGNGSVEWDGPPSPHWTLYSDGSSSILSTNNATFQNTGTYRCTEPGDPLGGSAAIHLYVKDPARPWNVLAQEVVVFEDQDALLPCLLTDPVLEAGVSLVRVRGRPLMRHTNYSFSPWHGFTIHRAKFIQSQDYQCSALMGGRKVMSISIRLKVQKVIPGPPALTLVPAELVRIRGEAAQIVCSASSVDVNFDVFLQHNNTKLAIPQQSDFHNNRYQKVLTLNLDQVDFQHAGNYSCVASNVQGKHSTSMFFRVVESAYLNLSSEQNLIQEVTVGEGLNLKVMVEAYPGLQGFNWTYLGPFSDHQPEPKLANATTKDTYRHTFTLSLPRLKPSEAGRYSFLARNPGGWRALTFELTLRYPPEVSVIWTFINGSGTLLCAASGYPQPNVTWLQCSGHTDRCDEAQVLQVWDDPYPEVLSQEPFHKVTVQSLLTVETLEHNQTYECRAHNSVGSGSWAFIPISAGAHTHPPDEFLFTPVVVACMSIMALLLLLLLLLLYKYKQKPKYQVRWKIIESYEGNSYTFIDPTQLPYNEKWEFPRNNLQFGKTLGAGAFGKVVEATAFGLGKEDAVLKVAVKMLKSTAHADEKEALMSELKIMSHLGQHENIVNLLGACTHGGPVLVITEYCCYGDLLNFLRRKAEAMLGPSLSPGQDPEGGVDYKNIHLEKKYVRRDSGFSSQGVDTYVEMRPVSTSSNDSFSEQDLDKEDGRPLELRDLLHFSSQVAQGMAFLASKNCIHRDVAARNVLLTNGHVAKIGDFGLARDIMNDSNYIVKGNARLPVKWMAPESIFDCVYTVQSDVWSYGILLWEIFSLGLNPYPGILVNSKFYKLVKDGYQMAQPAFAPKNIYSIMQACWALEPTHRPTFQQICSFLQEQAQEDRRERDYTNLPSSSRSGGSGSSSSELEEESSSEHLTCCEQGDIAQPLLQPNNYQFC

On to `CN1CCN(CCOc2ccn3c(C(=O)Nc4cccc5c4cnn5CCc4ccccn4)cnc3c2)CC1` [Example 107, 7-(2-(4-methylpiperazin-1-yl)ethoxy)-N-(1-(2-(pyridin-2-yl)ethyl)-1H-indazol-4-yl)imidazo[1,2-a]pyridine-3-carboxamide], for which the values for the half-inhibitory concentration (IC50) in assay [1], in assay [2] and in assay [3] were 0.123 µM, 0.158 µM and 0.0448 µM, respectively.

With `O=C(Nc1cccc2c1cnn2Cc1ccccn1)c1cnc2ccccn12` [Example 129, N-(1-(pyridin-2-ylmethyl)-1H-indazol-4-yl)imidazo[1,2-a]pyridine-3-carboxamide], the 50% inhibitory concentration (IC50) worked out at 0.124 µM in assay [1], 0.117 µM in assay [2] and 0.08 µM in assay [3].

Regarding `Cc1nn(Cc2csc(C(C)C)n2)c2cccc(NC(=O)c3cnc4cc(OCCN5CCN(C)CC5)ccn34)c12` [Example 12, N-(1-((2-isopropylthiazol-4-yl)methyl)-3-methyl-1H-indazol-4-yl)-7-(2-(4-methylpiperazin-1-yl)ethoxy)imidazo[1,2-a]pyridine-3-carboxamide], the 50% inhibitory concentration (IC50) is 0.0504 µM in assay [1], 0.044 µM in assay [2] and 0.0114 µM in assay [3].

For the molecule `Cc1cccc(Cn2nc(C)c3c(NC(=O)c4cnc5ccccn45)cccc32)n1` [Example 61, N-(3-methyl-1-((6-methylpyridin-2-yl)methyl)-1H-indazol-4-yl)imidazo[1,2-a]pyridine-3-carboxamide], the half-maximal inhibitory concentration (IC50) in assay [1] is 0.527 µM; in assay [2], 0.222 µM; in assay [3], 0.0581 µM.

Turning to `Cc1cccc(Cn2nc(C)c3c(NC(=O)c4cnc5cc(-c6ccc(=O)n(C)c6)ccn45)cccc32)n1` [Example 65, N-(3-methyl-1-((6-methylpyridin-2-yl)methyl)-1H-indazol-4-yl)-7-(1-methyl-6-oxo-1,6-dihydropyridin-3-yl)imidazo[1,2-a]pyridine-3-carboxamide], the figures for the 50% inhibitory concentration (IC50) in assay [1], in assay [2] and in assay [3] were 0.647 µM, 0.212 µM and 0.0085 µM, respectively.

In the case of `CN1CCN(CCOc2ccn3c(C(=O)Nc4cccc5c4cnn5Cc4ccc5[nH]cnc5c4)cnc3c2)CC1` [Example 108, N-(1-((1H-benzo[d]imidazol-5-yl)methyl)-1H-indazol-4-yl)-7-(2-(4-methylpiperazin-1-yl)ethoxy)imidazo[1,2-a]pyridine-3-carboxamide dihydrochloride], the half-maximal inhibitory concentration (IC50) in assay [1] came to 0.181 µM; in assay [2], 0.142 µM; in assay [3], 0.0667 µM.

As for `Cc1cccc(Cn2nc(C)c3c(NC(=O)c4cnc5cc(CCN6CCN(C)CC6)ccn45)cccc32)n1` [Example 78, N-(3-methyl-1-((6-methylpyridin-2-yl)methyl)-1H-indazol-4-yl)-7-(2-(4-methylpiperazin-1-yl)ethyl)imidazo[1,2-a]pyridine-3-carboxamide], the IC50 is 4.07 µM in assay [1], 3.43 µM in assay [2] and 0.0173 µM in assay [3].

For the molecule `COCCOc1ccn2c(C(=O)Nc3cccc4c3cnn4Cc3ccc(OC)cc3)cnc2c1` [Example 114, N-(1-(4-methoxybenzyl)-1H-indazol-4-yl)-7-(2-methoxyethoxy)imidazo[1,2-a]pyridine-3-carboxamide], the figures for the IC50 in assay [1], in assay [2] and in assay [3] were 0.0087 µM, 0.0093 µM and 0.0246 µM, respectively.

On to `Cc1nn(Cc2ccn(C(C)C)n2)c2cccc(NC(=O)c3cnc4cc(OCCN5CCN(C(C)C)CC5)ccn34)c12` [Example 49, N-(1-((1-isopropyl-1H-pyrazol-3-yl)methyl)-3-methyl-1H-indazol-4-yl)-7-(2-(4-isopropylpiperazin-1-yl)ethoxy)imidazo[1,2-a]pyridine-3-carboxamide], for which the IC50 in assay [1] was 0.0535 µM; in assay [2], 0.0097 µM; in assay [3], 0.0118 µM.

For `COCCOc1ccn2c(C(=O)Nc3c(Cl)cc(Cl)c4c3cnn4Cc3ccccc3)cnc2c1` [Example 136, N-(1-benzyl-5,7-dichloro-1H-indazol-4-yl)-7-(2-methoxyethoxy)imidazo[1,2-a]pyridine-3-carboxamide], the results for the IC50 in assay [1], in assay [2] and in assay [3] were 0.0541 µM, 1 µM and 0.0207 µM, respectively.

Regarding `COCCOc1ccn2c(C(=O)Nc3cccc4c3cnn4CC3CCOCC3)cnc2c1` [Example 113, 7-(2-methoxyethoxy)-N-(1-((tetrahydro-2H-pyran-4-yl)methyl)-1H-indazol-4-yl)imidazo[1,2-a]pyridine-3-carboxamide], the 50% inhibitory concentration (IC50) is 0.331 µM in assay [1], 0.289 µM in assay [2] and 0.121 µM in assay [3].

Regarding `COCCOc1ccn2c(C(=O)Nc3ccc(Cl)c4c3cnn4Cc3ccccc3)cnc2c1` [Example 135, N-(1-benzyl-7-chloro-1H-indazol-4-yl)-7-(2-methoxyethoxy)imidazo[1,2-a]pyridine-3-carboxamide], the IC50 was determined as 0.396 µM in assay [1], 0.362 µM in assay [2] and 0.228 µM in assay [3].

For the molecule `N#Cc1ccc2ncc(C(=O)Nc3cccc4c3cnn4Cc3ccccc3)n2c1` [Example 154, N-(1-benzyl-1H-indazol-4-yl)-6-cyanoimidazo[1,2-a]pyridine-3-carboxamide], the IC50 in assay [1] worked out at 0.15 µM; in assay [2], 0.186 µM; in assay [3] it was 0.143 µM.

Take `CCOc1cccc(Cn2nc(C)c3c(NC(=O)c4cnc5cc(OCCN6CCN(C)CC6)ccn45)cccc32)n1` [Example 86, N-(1-((6-ethoxypyridin-2-yl)methyl)-3-methyl-1H-indazol-4-yl)-7-(2-(4-methylpiperazin-1-yl)ethoxy)imidazo[1,2-a]pyridine-3-carboxamide]: the 50% inhibitory concentration (IC50) came to 0.314 µM in assay [1], 0.117 µM in assay [2] and 0.007 µM in assay [3].

As for `CCOc1cccc(Cn2ncc3c(NC(=O)c4cnc5cc(OCCN6CCN(C)CC6)ccn45)cccc32)n1` [Example 105, N-(1-((6-ethoxypyridin-2-yl)methyl)-1H-indazol-4-yl)-7-(2-(4-methylpiperazin-1-yl)ethoxy)imidazo[1,2-a]pyridine-3-carboxamide], the results for the concentration for half-maximal inhibition (IC50) in assay [1], in assay [2] and in assay [3] were 0.0027 µM, 0.0026 µM and 0.0033 µM, respectively.

Take `COCCOc1ccn2c(C(=O)Nc3cccc4c3cnn4CC3CCN(C(=O)OC(C)(C)C)CC3)cnc2c1` [Example 122, tert-butyl 4-((4-(7-(2-methoxyethoxy)imidazo[1,2-a]pyridine-3-carboxamido)-1H-indazol-1-yl)methyl)piperidine-1-carboxylate]: the values for the IC50 in assay [1], in assay [2] and in assay [3] were 0.0609 µM, 0.0495 µM and 0.131 µM, respectively.

With `COCCOc1ccn2c(C(=O)Nc3cccc4c3cnn4Cc3cccnc3)cnc2c1` [Example 121, 7-(2-methoxyethoxy)-N-(1-(pyridin-3-ylmethyl)-1H-indazol-4-yl)imidazo[1,2-a]pyridine-3-carboxamide], the IC50 was 0.0731 µM in assay [1], 0.0133 µM in assay [2] and 0.0209 µM in assay [3].

As for `COCCOc1ccn2c(C(=O)Nc3cccc4c3cnn4CCc3ccccc3)cnc2c1` [Example 151, 7-(2-methoxyethoxy)-N-(1-phenethyl-1H-indazol-4-yl)imidazo[1,2-a]pyridine-3-carboxamide], the 50% inhibitory concentration (IC50) in assay [1] was found to be 0.0373 µM; in assay [2] it was 0.009 µM; in assay [3], 0.0448 µM.

Take `N#Cc1ccn2c(C(=O)Nc3cccc4c3cnn4Cc3ccccc3)cnc2c1` [Example 152, N-(1-benzyl-1H-indazol-4-yl)-7-cyanoimidazo[1,2-a]pyridine-3-carboxamide]: the concentration for half-maximal inhibition (IC50) in assay [1] amounted to 0.165 µM; in assay [2], 0.296 µM; in assay [3] it was 0.117 µM.
